Test results: patent publication US20250250239A1, “SOLID STATE FORMS OF MAVACAMTEN AND PROCESS FOR PREPARATION THEREOF” (Assia Chemical Industries Ltd., priority 2022, published 2025)
“Also recorded” adds a separate entry of the source.

How the values were obtained:
Type in all cases: physicochemical
[1] = Storage stability at different relative humidities (XRPD analysis); conditions: high and low relative humidity, ambient temperature
Experimental: (§1) Sample, after being powdered in a mortar and pestle, is applied directly on a silicon plate holder. The X-ray powder diffraction pattern was measured with Philips X'Pert PRO X-ray powder diffractometer, equipped with Cu irradiation source=1.54184 Å (Ångstrom), X'Celerator (2.022° 2θ) detector. Scanning parameters: angle range: 3-40 deg., step size 0.0167, time per step 37 s, continuous scan. The described peak positions were determined using silicon powder as an internal standard.
(§2) Samples of Mavacamten Form 7 were subjected to conditions of different relative humidities at ambient temperature; TGA weight loss analysis was performed on the samples after 7 days, XRPD analysis was performed after 30 days.

[2] = Sauna experiments (exposure to solvent vapors, XRPD)
Experimental: as §1
Samples of Mavacamten Form 7 (about 20-30 mg) were exposed for 7 days to vapors of different solvents in a sealed chamber.

[3] = Stability to compression (pressure of 1 ton, XRPD); conditions: Pressure (1 tons), XRPD after 2 minutes
Experimental: as §1
A sample of Mavacamten Form 7 was subjected to a pressure of 1 ton (Atlas® Autopress hydraulic press, set to 1 ton). XRPD analysis was performed on the sample after 2 minutes.

[4] = Thermal stability (heating, XRPD); conditions: Heating 100° C., 30 minutes
Experimental: as §1
A sample of Mavacamten Form 7 was subjected to heating up to 100° C. for 30 minutes.

[5] = Stability experiments, all tested stress conditions (summary); conditions: strong grinding, pressure of 1 ton, high humidity (up to 100% RH for 30 days), high temperature (up to 100° C.)
Text: Example 2: Stability Experiments

[6] = Grinding experiments (strong grinding and solvent drop grinding, XRPD); conditions: for XRPD analysis results: 2 minutes
Experimental: as §1
Samples of Mavacamten Form 7 were subjected to strong grinding, and to solvent drop grinding in isopropanol, ethanol, ethyl acetate, acetone and water. Grinding was carried out on the samples alone, or in the presence of a solvent. In these experiments, about 20 mg of the sample is placed in a mortar and ground with a pestle for 2 minutes. The solvent, when used, as added to the crystalline material before grinding, in a volume of 10 microliters.

[7] = TGA weight loss after storage at different relative humidities (hygroscopicity); conditions: for TGA weight loss after 7 days (up to 190° C.): ambient temperature
Experimental: as §2

## CC(C)n1c(=O)cc(N[C@@H](C)c2ccccc2)[nH]c1=O [Mavacamten Form 7, 6-{[(1S)-1-phenylethyl]amino}-3-(propan-2-yl)-1,2,3,4-tetrahydropyrimidine-2,4-dion]
[1]
  Stability at relative humidity conditions: stable at high and low relative humidity conditions
[2]; Sauna (RT/7 days) (ethanol)
  XRPD analysis results: No polymorphic conversion
[2]; Sauna (RT/7 days) (ethyl acetate)
  XRPD analysis results: No polymorphic conversion
[2]; Sauna (RT/7 days) (isopropanol)
  XRPD analysis results: No polymorphic conversion
[2]; Sauna (RT/7 days) (water)
  XRPD analysis results: No polymorphic conversion
[3]
  XRPD analysis results: No polymorphic conversion
[4]
  Result (XRPD analysis): no change in the starting material; also recorded: No polymorphic conversion
[5]
  Stability under tested stress conditions: stable under all tested stress conditions
[6]; Solvent-drop grinding (acetone)
  XRPD analysis results: No polymorphic conversion
[6]; Solvent-drop grinding (ethanol)
  XRPD analysis results: No polymorphic conversion
[6]; Solvent-drop grinding (ethyl-acetate)
  XRPD analysis results: No polymorphic conversion
[6]; Solvent-drop grinding (isopropanol)
  XRPD analysis results: No polymorphic conversion
[6]; Solvent-drop grinding (water)
  XRPD analysis results: No polymorphic conversion
[6]; Strong grinding
  XRPD analysis results: No polymorphic conversion
[6]; strong grinding and solvent drop grinding in isopropanol, ethanol, ethyl acetate, acetone and water
  XRPD analysis after the grinding experiment: no change in the starting material
[7]; as confirmed by TGA, different relative humidities
  Hygroscopicity: non-hygroscopic
[7]; relative humidity 20%
  TGA weight loss after 7 days (up to 190° C.): 0.7%
[7]; relative humidity 40%
  TGA weight loss after 7 days (up to 190° C.): 0.6%
[7]; relative humidity 60%
  TGA weight loss after 7 days (up to 190° C.): 0.8%
[7]; relative humidity 80%
  TGA weight loss after 7 days (up to 190° C.): 0.5%
[7]; relative humidity 100%
  TGA weight loss after 7 days (up to 190° C.): 1%
